Test results: the NIST ThermoML archive (doi:10.1021/je060108f)
± gives the expanded uncertainty stated by the source.

Tests used:
[1] = wn = mass fraction of the nth substance listed; conditions: 101 kPa, Liquid
[2] = 101 kPa, Liquid

OCCC1CCCCN1 (stereo not given) [2-(2-hydroxyethyl)piperidine] + O
[1]
Conditions | mass density [kg/m3] | viscosity [mPa·s]
288 K, w1 = 0.05 | 1001.8 ± 2.2 | 1.364 ± 0.098
288 K, w1 = 0.1 | 1004.7 ± 2.2 | 1.775 ± 0.12
288 K, w1 = 0.15 | 1005 ± 2.3 | 2.313 ± 0.16
288 K, w1 = 0.2 | 1011.1 ± 2.3 | 2.935 ± 0.2
288 K, w1 = 0.25 | 1014.5 ± 2.3 | 3.921 ± 0.26
288 K, w1 = 0.3 | 1017.3 ± 2.4 | 5.218 ± 0.34
293 K, w1 = 0.05 | 1000.1 ± 2.1 | 1.298 ± 0.094
293 K, w1 = 0.1 | 1002.3 ± 2.1 | 1.655 ± 0.12
293 K, w1 = 0.15 | 1003.2 ± 2.1 | 2.097 ± 0.15
293 K, w1 = 0.2 | 1008.3 ± 2.2 | 2.696 ± 0.18
293 K, w1 = 0.25 | 1012.5 ± 2.2 | 3.506 ± 0.24
293 K, w1 = 0.3 | 1014.9 ± 2.3 | 4.697 ± 0.31
298 K, w1 = 0.05 | 998.9 ± 2.2 | 1.116 ± 0.082
298 K, w1 = 0.1 | 1001.6 ± 2.2 | 1.423 ± 0.1
298 K, w1 = 0.15 | 1002.4 ± 2.2 | 1.762 ± 0.12
298 K, w1 = 0.2 | 1005.9 ± 2.3 | 2.289 ± 0.16
298 K, w1 = 0.25 | 1010.1 ± 2.3 | 2.968 ± 0.2
298 K, w1 = 0.3 | 1012.7 ± 2.4 | 3.858 ± 0.26
303 K, w1 = 0.05 | 997.6 ± 2.2 | 1.064 ± 0.078
303 K, w1 = 0.1 | 999.6 ± 2.3 | 1.316 ± 0.095
303 K, w1 = 0.15 | 1001.4 ± 2.3 | 1.599 ± 0.11
303 K, w1 = 0.2 | 1003.7 ± 2.3 | 2.037 ± 0.14
303 K, w1 = 0.25 | 1007.5 ± 2.4 | 2.603 ± 0.18
303 K, w1 = 0.3 | 1009.6 ± 2.4 | 3.429 ± 0.23
308 K, w1 = 0.05 | 996 ± 2.3 | 0.959 ± 0.072
308 K, w1 = 0.1 | 997.4 ± 2.3 | 1.216 ± 0.089
308 K, w1 = 0.15 | 998.9 ± 2.4 | 1.489 ± 0.11
308 K, w1 = 0.2 | 1001.7 ± 2.4 | 1.869 ± 0.13
308 K, w1 = 0.25 | 1003.1 ± 2.5 | 2.382 ± 0.17
308 K, w1 = 0.3 | 1006.4 ± 2.5 | 3.069 ± 0.21
313 K, w1 = 0.05 | 994.3 ± 2.4 | 0.828 ± 0.063
313 K, w1 = 0.1 | 996.5 ± 2.4 | 1.015 ± 0.076
313 K, w1 = 0.15 | 997.9 ± 2.4 | 1.253 ± 0.091
313 K, w1 = 0.2 | 999.3 ± 2.5 | 1.511 ± 0.11
313 K, w1 = 0.25 | 999.9 ± 2.5 | 1.938 ± 0.14
313 K, w1 = 0.3 | 1001.8 ± 2.6 | 2.468 ± 0.17
318 K, w1 = 0.05 | 992.4 ± 2.5 | 0.776 ± 0.06
318 K, w1 = 0.1 | 994.2 ± 2.5 | 0.965 ± 0.072
318 K, w1 = 0.15 | 995.5 ± 2.5 | 1.156 ± 0.085
318 K, w1 = 0.2 | 996.7 ± 2.5 | 1.429 ± 0.1
318 K, w1 = 0.25 | 998.8 ± 2.5 | 1.795 ± 0.13
318 K, w1 = 0.3 | 1000.2 ± 2.6 | 2.229 ± 0.15
323 K, w1 = 0.05 | 990.3 ± 2.5 | 0.684 ± 0.054
323 K, w1 = 0.1 | 991.7 ± 2.5 | 0.828 ± 0.063
323 K, w1 = 0.15 | 993.5 ± 2.6 | 0.995 ± 0.074
323 K, w1 = 0.2 | 994.7 ± 2.6 | 1.193 ± 0.087
323 K, w1 = 0.25 | 996.1 ± 2.6 | 1.523 ± 0.11
323 K, w1 = 0.3 | 997.3 ± 2.7 | 1.891 ± 0.13
328 K, w1 = 0.05 | 987.7 ± 2.6 | 0.651 ± 0.052
328 K, w1 = 0.1 | 988.7 ± 2.6 | 0.778 ± 0.06
328 K, w1 = 0.15 | 990.6 ± 2.6 | 0.975 ± 0.073
328 K, w1 = 0.2 | 991.9 ± 2.7 | 1.173 ± 0.086
328 K, w1 = 0.25 | 993 ± 2.7 | 1.39 ± 0.1
328 K, w1 = 0.3 | 994.3 ± 2.7 | 1.769 ± 0.12
333 K, w1 = 0.05 | 983.5 ± 2.7 | 0.585 ± 0.048
333 K, w1 = 0.1 | 985.9 ± 2.7 | 0.695 ± 0.055
333 K, w1 = 0.15 | 987.9 ± 2.7 | 0.837 ± 0.064
333 K, w1 = 0.2 | 988.7 ± 2.7 | 1.013 ± 0.076
333 K, w1 = 0.25 | 990.3 ± 2.8 | 1.229 ± 0.09
333 K, w1 = 0.3 | 991.3 ± 2.8 | 1.536 ± 0.11

CN(CCO)CCO [N-methyldiethanolamine]
[2]
Conditions | mass density [kg/m3] | viscosity [mPa·s]
288 K | 1044.1 ± 3.6 | 142.02 ± 31
313 K | 1027.2 ± 3.7 | 34.73 ± 2.2
333 K | 1012.6 ± 3.8 | 14.66 ± 0.95

CN(CCO)CCO [N-methyldiethanolamine] + O
[1]
Conditions | mass density, w1 = 0.1 [kg/m3] | mass density, w1 = 0.2 [kg/m3] | mass density, w1 = 0.3 [kg/m3] | mass density, w1 = 1 [kg/m3] | viscosity, w1 = 0.1 [mPa·s] | viscosity, w1 = 0.2 [mPa·s] | viscosity, w1 = 0.3 [mPa·s] | viscosity, w1 = 1 [mPa·s]
288 K | 1007.9 ± 2.2 | 1016.7 ± 2.3 | 1030.7 ± 2.4 | 1044.1 ± 3.6 | 1.703 ± 0.12 | 2.624 ± 0.18 | 4.399 ± 0.29 | 142.02 ± 31
313 K | 1000.4 ± 2.4 | 1008.6 ± 2.5 | 1019.3 ± 2.6 | 1027.2 ± 3.7 | 0.899 ± 0.068 | 1.305 ± 0.095 | 1.929 ± 0.14 | 34.73 ± 2.2
333 K | 990.2 ± 2.7 | 999.5 ± 2.7 | 1007.1 ± 2.8 | 1012.6 ± 3.8 | 0.63 ± 0.05 | 0.86 ± 0.066 | 1.218 ± 0.09 | 14.66 ± 0.95
